Experiment: Microsomal stability, human liver microsomes
Type: in vitro ADME
Details: for % Drug Remaining NADPH Neg, Human Liver Microsomes / % Drug Remaining NADPH Pos, Human Liver Microsomes: 10 μM
Method: An incubation mixture with, and without NADPH-generating system, as well as a neat solution prepared without microsomes and NADPH-generating system was used. […] All reactions were initiated with the addition of Up284. Incubations were performed in glass tubes maintained at 37°C in a shaker bath. At 0, 30, and 60 minutes, 10 μL samples were withdrawn from the reaction mixture, and 0.5 mL of acetonitrile containing internal standard was added to each. Samples were vortex-mixed and subjected to centrifugation for 5 min at 1430 x g. A 10 μL aliquot of the supernatant was injected onto the LC-MS/MS instrument for qualitative analysis using a temperature-controlled autosampling device operating at 5°C.

**Q.** Which “additional degradation in the presence of NADPH, human liver microsomes” value does the source give for `N#Cc1ccc(/C=C2/C(=O)/C(=C/c3ccc(C#N)cc3)C23CCNCC3)cc1` [Up284] here?
**A.** ~ 10%

**Q.** What about the “degradation in human liver microsomes without NADPH” value of the same compound?
**A.** ~ 50%

**Q.** And the “% Drug Remaining NADPH Neg, Human Liver Microsomes” value (“% Drug Remaining NADPH Neg” below) (0 min)?
**A.** 100%

**Q.** And the “% Drug Remaining NADPH Pos, Human Liver Microsomes” value (from here on “% Drug Remaining NADPH Pos”) (0 min)?
**A.** 100%

**Q.** And the “% Drug Remaining NADPH Neg” value (30 min)?
**A.** 57%

**Q.** What about the “% Drug Remaining NADPH Pos” value (30 min) of the same compound?
**A.** 43%

**Q.** What about the “% Drug Remaining NADPH Neg” value (60 min) of the same compound?
**A.** 52%

**Q.** What about the “% Drug Remaining NADPH Pos” value (60 min) of the same compound?
**A.** 43%

From PMC10266688 (PLOS ONE, 2023)
